In patent publication US11485728B2, “Small molecules for the treatment of autoimmune diseases and cancer” (Athos Therapeutics, Inc., priority 2020, dated 2022):

What was measured:
[1] = Dosing formulation stability (physical, potency, impurity profile); type: physicochemical; details: for Conc. (potency) / Observation (physical state): dosing formulation
Method: 5 mg/mL of test compound was formulated with 10% Dimethylacetamide (DMA), 30% Propylene Glycol, 35% PEG-300, 25% water (H2O). The formulation solution was stored at 4° C. and 25° C. The samples were retrieved at the following time points: 1 day, 3 days, 5 days, 7 days, 10 days and 14 days. The sample retrieved at each time point was examined visually observation of the physical state (texture and color) prior to sample preparation for analysis for physical stability. For chemical stability, the sample was diluted 1:250 dilution with acetonitrile (ACN) for potency analysis, and to 100 ug/mL final solution for impurity profile. The sample were prepared in triplication for potency analysis. The samples were then injected to HPLC for the determination of test compound concentration and its impurity profile. An Agilent 1260 Infinity II Lab LC Series HPLC system was used including 1260 Quat pump, 1260 vial autosampler, ICC column oven, and 1260 DAD WR detector. The chromatographic separation was achieved by a Phenomenex Synergi Polar RP column (150×4.6 mm, 4 μm, 80 Å). The flow rate was 1 mL/min and the detection was set at 254 nm. Injection volume was 10 uL, otherwise specified. The mobile phase consisted A, water with 0.1% trifluoroacetic acid and B, acetonitrile with 0.1% trifluoroacetic acid. […] For impurity profile, the gradient was A/B (99:1) from 0 minute; to A/B (1:99) from 0 to 15 minutes; A/B (1:99) from 15 to 18 minutes; to A/B (99:1) from 18 to 18.1 minutes; A/B (99:1) from 18.1 to 20 minutes. Data acquisition and peak integrations were obtained by OpenLAB CDS Version 2.4 (Agilent) operating with Windows (Microsoft).
Physical and chemical stability of dosing formulation lead to the investigation of potential impurities upon storage at various temperatures. The stability results can be used to assess the appropriate storage conditions and shelf life of a formulation, and can provide important information for drug formulation development, nonclinical, and clinical studies, especially on-going efficacy studies. The dosing formulation in these experiments contained 5 mg/mL test compound 1, with 10% Dimethylacetamide (DMA), 30% Propylene Glycol, 35% PEG-300, 25% water (H2O). The dosing formulation was stored at 4° C. and 25° C. The samples were retrieved at the following time points: 1 day and 3 days. The dosing formulation was diluted and analyzed for potency and impurity profile using reverse phase high pressure liquid chromatography. The impurity profile was described as the relative percent peak area of each peak detected.

colon cell line HCT = test: Gene expression (RNA-Seq) of colon cancer cells treated with Compound 156; type: cell-based, Human
Method: Methods: RNA was extracted from HTC colon cancer cells that has been treated or not with Compound 156 and was sent to the Technology Center for Genomics & Bioinformatics at UCLA for sequencing.
Library construction and sequencing methods: Libraries for RNA-Seq were prepared with TruSeq Stranded mRNA Library Prep Kit. The workflow consists of mRNA enrichment and fragmentation. Cleaved RNA fragments are copied into first strand cDNA using reverse transcriptase and random primers. Strand specificity is achieved by replacing dTTP with dUTP and followed by second strand cDNA synthesis using DNA Polymerase I and RNase H. cDNA generation is followed by A-tailing, adaptor ligation and PCR amplification. Different adaptors were used for multiplexing samples in one lane. Sequencing was performed on Illumina NovaSeq 6000 for PE 2×50 run. Data quality check was done on Illumina SAV. Demultiplexing was performed with Illumina Bcl2fastq v2.19.1.403 software.
Bioinformatics methods: The reads were mapped by STAR 2.27a to Human GRCh38 genome and read counts per gene were quantified using Ensembl Human GRCh38.98 GTF file. Gene differential expression analysis and downstream gene enrichment analysis was performed at Athos Therapeutics. The DESeq2 R package was used for differential expression analysis. DESeq2 FDR cutoff: 0.05, DESeq2 Log 2FC cutoff: 1 (FC cutoff: 2). Gene enrichment analysis was performed using the Enrichr (https://maayanlab.cloud/Enrichr/enrich) and gprofiler (https://biit.cs.ut.ee/gprofiler/gost) platforms.

[2] = cell cycle pathway, colon cell line HCT
[3] = p53 pathway, colon cell line HCT

COc1cc2c(NC3CCS(=O)(=O)CC3)nc(N3CCC(F)(F)CC3)nc2cc1OCCCN1CCCC1 [Compound 1, 4-((2-(4,4-difluoropiperidin-1-yl)-6-methoxy-7-(3-(pyrrolidin-1-yl)propoxy)quinazolin-4-yl)amino)tetrahydro-2H-thiopyran 1,1-dioxide]
Impurity Peak RRT 0.978, relative percent peak area ([1]; 4° C., day 0): 0.14%
Peak RRT 1.00 (Compound 1), relative percent peak area ([1]; 4° C., day 0): 99.86%
Impurity Peak RRT 0.978, relative percent peak area ([1]; 4° C., day 1): 0.14%
Peak RRT 1.00 (Compound 1), relative percent peak area ([1]; 4° C., day 1): 99.86%
Impurity Peak RRT 0.978, relative percent peak area ([1]; 4° C., day 3): 0.31%
Peak RRT 1.00 (Compound 1), relative percent peak area ([1]; 4° C., day 3): 99.69%
Impurity Peak RRT 0.978, relative percent peak area ([1]; 25° C., day 0): 0.14%
Peak RRT 1.00 (Compound 1), relative percent peak area ([1]; 25° C., day 0): 99.86%
Impurity Peak RRT 0.978, relative percent peak area ([1]; 25° C., day 1): 0.13%
Peak RRT 1.00 (Compound 1), relative percent peak area ([1]; 25° C., day 1): 99.87%
Impurity Peak RRT 0.978, relative percent peak area ([1]; 25° C., day 3): 0.30%
Peak RRT 1.00 (Compound 1), relative percent peak area ([1]; 25° C., day 3): 99.70%
Conc. (potency) ([1]; 4° C., day 0): 5560 µg/mL
Observation (physical state) ([1]; 4° C., day 0): Clear solution
Conc. (potency) ([1]; 4° C., day 1): 5570 µg/mL
Observation (physical state) ([1]; 4° C., day 1): Clear solution
Conc. (potency) ([1]; 4° C., day 3): 5650 µg/mL
Observation (physical state) ([1]; 4° C., day 3): Clear solution
Conc. (potency) ([1]; 25° C., day 0): 5560 µg/mL
Observation (physical state) ([1]; 25° C., day 0): Clear solution
Conc. (potency) ([1]; 25° C., day 1): 5470 µg/mL
Observation (physical state) ([1]; 25° C., day 1): Clear solution
Conc. (potency) ([1]; 25° C., day 3): 6090 µg/mL
Observation (physical state) ([1]; 25° C., day 3): Clear solution

COc1cc2c(NC3CCN(C(C)C)CC3)nc(-n3ccnc3)nc2cc1OCCCN1CCCC1 [Compound 156, 2-(1H-imidazol-1-yl)-N-(1-isopropylpiperidin-4-yl)-6-methoxy-7-(3-(pyrrolidin-1-yl)propoxy)quinazolin-4-amine]
Log2 Fold Change BUB1 (colon cell line HCT; [2]): −5.157
Log2 Fold Change BUB1B (colon cell line HCT; [2]): −4.7094
Log2 Fold Change CCNA2 (colon cell line HCT; [2]): −5.163
Log2 Fold Change CCNB1 (colon cell line HCT; [2]): −4.231
Log2 Fold Change CCNB2 (colon cell line HCT; [2]): −5.041
Log2 Fold Change CCNE2 (colon cell line HCT; [2]): −5.409
Log2 Fold Change CDC6 (colon cell line HCT; [2]): −4.121
Log2 Fold Change CDC7 (colon cell line HCT; [2]): −2.499
Log2 Fold Change CDC20 (colon cell line HCT; [2]): −4.826
Log2 Fold Change CDC25A (colon cell line HCT; [2]): −2.858
Log2 Fold Change CDC25C (colon cell line HCT; [2]): −5.142
Log2 Fold Change CDC45 (colon cell line HCT; [2]): −4.679
Log2 Fold Change CDK1 (colon cell line HCT; [2]): −4.779
Log2 Fold Change CDKN2C (colon cell line HCT; [2]): −5.14
Log2 Fold Change CHEK1 (colon cell line HCT; [2]): −1.994
Log2 Fold Change CHEK2 (colon cell line HCT; [2]): −2.186
Log2 Fold Change DBF4 (colon cell line HCT; [2]): −2.536
Log2 Fold Change E2F1 (colon cell line HCT; [2]): −4.309
Log2 Fold Change E2F2 (colon cell line HCT; [2]): −5.296
Log2 Fold Change ESPL1 (colon cell line HCT; [2]): −4.821
Log2 Fold Change MAD2L1 (colon cell line HCT; [2]): −4.388
Log2 Fold Change MCM2 (colon cell line HCT; [2]): −3.686
Log2 Fold Change MCM3 (colon cell line HCT; [2]): −2.599
Log2 Fold Change MCM4 (colon cell line HCT; [2]): −3.347
Log2 Fold Change MCM5 (colon cell line HCT; [2]): −4.183
Log2 Fold Change MCM6 (colon cell line HCT; [2]): −3.834
Log2 Fold Change MCM7 (colon cell line HCT; [2]): −3.817
Log2 Fold Change ORC1 (colon cell line HCT; [2]): −4.987
Log2 Fold Change ORC6 (colon cell line HCT; [2]): −3.9103
Log2 Fold Change PKMYT1 (colon cell line HCT; [2]): −3.971
Log2 Fold Change PLK1 (colon cell line HCT; [2]): −4.8821
Log2 Fold Change PTTG1 (colon cell line HCT; [2]): −2.317
Log2 Fold Change RBL1 (colon cell line HCT; [2]): −3.043
Log2 Fold Change SKP2 (colon cell line HCT; [2]): −2.823
Log2 Fold Change SMC1A (colon cell line HCT; [2]): −1.934
Log2 Fold Change TTK (colon cell line HCT; [2]): −4.824
Log2 Fold Change WEE1 (colon cell line HCT; [2]): −2.394
number of genes activated by p53 that were upregulated (colon cell line HCT; data not shown): > 80 genes
number of genes regulated by E2F-1 and E2F-4 that were downregulated (colon cell line HCT; data not shown): > 500 genes
Log2 Fold Change CCND1 (colon cell line HCT; [3]): 1.792
Log2 Fold Change CD82 (colon cell line HCT; [3]): 1.878
Log2 Fold Change CDKN1A (colon cell line HCT; [3]): 3.19
Log2 Fold Change FAS (colon cell line HCT; [3]): 2.667
Log2 Fold Change GADD45A (colon cell line HCT; [3]): 1.969
Log2 Fold Change MDM2 (colon cell line HCT; [3]): 3.166
Log2 Fold Change PMAIP1 (colon cell line HCT; [3]): 3.102
Log2 Fold Change RRM2B (colon cell line HCT; [3]): 2.678
Log2 Fold Change SERPINB5 (colon cell line HCT; [3]): 2.471
Log2 Fold Change SERPINE1 (colon cell line HCT; [3]): 3.232
Log2 Fold Change SESN1 (colon cell line HCT; [3]): 1.955
Log2 Fold Change SESN2 (colon cell line HCT; [3]): 2.19
Log2 Fold Change THBS1 (colon cell line HCT; [3]): 1.872
Log2 Fold Change TP53I3 (colon cell line HCT; [3]): 3.87
Log2 Fold Change ZMAT3 (colon cell line HCT; [3]): 3.367
genes related to cell cycle (colon cell line HCT; treated vs not treated): downregulated
p-53 related genes (colon cell line HCT; treated vs not treated): upregulated
